Key:
[1] = relative permittivity at various frequencies (dimensionless); xn = mol fraction of the nth substance listed; conditions: 101.3 kPa, Liquid, Frequency=1 MHz, HP4284A LCR Meter with HP16452A measuring cell
[2] = xn = mol fraction of the nth substance listed; conditions: 101.3 kPa, Liquid

COCCOCCOCCOC [2,5,8,11-tetraoxadodecane] + CCCCCCCCCCCC
Conditions | mass density, [2] [kg/m3] | relative permittivity, [1]
288.15 K, x1 = 0.0983 | 769.24 | –
288.15 K, x1 = 0.0993 | – | 2.3
288.15 K, x1 = 0.1981 | – | 2.61
288.15 K, x1 = 0.2007 | 788.2 | –
288.15 K, x1 = 0.2498 | – | 2.79
288.15 K, x1 = 0.2526 | 798.35 | –
288.15 K, x1 = 0.2974 | 807.41 | –
288.15 K, x1 = 0.3051 | – | 3.01
288.15 K, x1 = 0.396 | – | 3.4
288.15 K, x1 = 0.398 | 828.67 | –
288.15 K, x1 = 0.5011 | – | 3.92
288.15 K, x1 = 0.5097 | 853.81 | –
288.15 K, x1 = 0.5986 | 875.06 | –
288.15 K, x1 = 0.5991 | – | 4.51
288.15 K, x1 = 0.6981 | 900.28 | –
288.15 K, x1 = 0.7114 | – | 5.28
288.15 K, x1 = 0.7994 | – | 5.98
288.15 K, x1 = 0.8012 | 928.25 | –
288.15 K, x1 = 0.8996 | – | 6.87
288.15 K, x1 = 0.9009 | 957.48 | –
288.15 K, x1 = 0.9504 | – | 7.37
288.15 K, x1 = 0.951 | 973.13 | –
293.15 K, x1 = 0.0989 | 765.55 | –
293.15 K, x1 = 0.0992 | – | 2.3
293.15 K, x1 = 0.1969 | 783.56 | –
293.15 K, x1 = 0.2005 | – | 2.6
293.15 K, x1 = 0.2488 | 793.6 | –
293.15 K, x1 = 0.252 | – | 2.78
293.15 K, x1 = 0.2988 | – | 2.95
293.15 K, x1 = 0.3069 | 805.3 | –
293.15 K, x1 = 0.3978 | – | 3.37
293.15 K, x1 = 0.4006 | 825.05 | –
293.15 K, x1 = 0.5003 | – | 3.87
293.15 K, x1 = 0.5006 | 847.38 | –
293.15 K, x1 = 0.5981 | 870.51 | –
293.15 K, x1 = 0.6016 | – | 4.45
293.15 K, x1 = 0.698 | – | 5.08
293.15 K, x1 = 0.6989 | 895.89 | –
293.15 K, x1 = 0.7963 | 922.13 | –
293.15 K, x1 = 0.7995 | – | 5.85
293.15 K, x1 = 0.8997 | – | 6.73
293.15 K, x1 = 0.9032 | 953.28 | –
293.15 K, x1 = 0.9492 | – | 7.2
293.15 K, x1 = 0.95 | 967.84 | –
298.15 K, x1 = 0.088 | – | 2.25
298.15 K, x1 = 0.0984 | 761.73 | –
298.15 K, x1 = 0.1995 | 780.21 | –
298.15 K, x1 = 0.2006 | – | 2.58
298.15 K, x1 = 0.2494 | – | 2.74
298.15 K, x1 = 0.2511 | 790.16 | –
298.15 K, x1 = 0.3005 | 800.04 | –
298.15 K, x1 = 0.3046 | – | 2.95
298.15 K, x1 = 0.3988 | 820.63 | –
298.15 K, x1 = 0.4127 | – | 3.4
298.15 K, x1 = 0.496 | – | 3.8
298.15 K, x1 = 0.4974 | 842.53 | –
298.15 K, x1 = 0.5972 | – | 4.35
298.15 K, x1 = 0.598 | 866.25 | –
298.15 K, x1 = 0.6987 | – | 4.98
298.15 K, x1 = 0.6997 | 891.79 | –
298.15 K, x1 = 0.7954 | 917.48 | –
298.15 K, x1 = 0.8028 | – | 5.76
298.15 K, x1 = 0.9014 | 948.24 | –
298.15 K, x1 = 0.9022 | – | 6.61
298.15 K, x1 = 0.9504 | – | 7.07
298.15 K, x1 = 0.9513 | 963.73 | –
303.15 K, x1 = 0.0987 | 758.05 | –
303.15 K, x1 = 0.099 | – | 2.26
303.15 K, x1 = 0.1997 | – | 2.56
303.15 K, x1 = 0.2033 | 777 | –
303.15 K, x1 = 0.2498 | 785.94 | –
303.15 K, x1 = 0.2517 | – | 2.73
303.15 K, x1 = 0.2994 | 795.76 | 2.9
303.15 K, x1 = 0.3949 | 815.57 | –
303.15 K, x1 = 0.3976 | – | 3.3
303.15 K, x1 = 0.4991 | – | 3.76
303.15 K, x1 = 0.5002 | 838.84 | –
303.15 K, x1 = 0.5969 | – | 4.29
303.15 K, x1 = 0.5996 | 862.24 | –
303.15 K, x1 = 0.6979 | 886.84 | –
303.15 K, x1 = 0.699 | – | 4.94
303.15 K, x1 = 0.7996 | 914.11 | –
303.15 K, x1 = 0.8015 | – | 5.69
303.15 K, x1 = 0.9015 | 943.66 | –
303.15 K, x1 = 0.9058 | – | 6.55
303.15 K, x1 = 0.9494 | – | 6.96
303.15 K, x1 = 0.9509 | 958.94 | –
308.15 K, x1 = 0.0988 | – | 2.25
308.15 K, x1 = 0.1 | 754.59 | –
308.15 K, x1 = 0.1965 | – | 2.53
308.15 K, x1 = 0.1987 | 772.42 | –
308.15 K, x1 = 0.2471 | – | 2.7
308.15 K, x1 = 0.2494 | 782.08 | –
308.15 K, x1 = 0.2992 | 791.92 | –
308.15 K, x1 = 0.307 | – | 2.91
308.15 K, x1 = 0.3968 | 812.1 | –
308.15 K, x1 = 0.4071 | – | 3.31
308.15 K, x1 = 0.4983 | – | 3.73
308.15 K, x1 = 0.5058 | 836.19 | –
308.15 K, x1 = 0.5976 | 857.76 | –
308.15 K, x1 = 0.598 | – | 4.25
308.15 K, x1 = 0.6938 | – | 4.83
308.15 K, x1 = 0.6974 | 882.71 | –
308.15 K, x1 = 0.7997 | – | 5.57
308.15 K, x1 = 0.7998 | 910.17 | –
308.15 K, x1 = 0.9018 | – | 6.41
308.15 K, x1 = 0.9025 | 939.96 | –
308.15 K, x1 = 0.9501 | – | 6.86
308.15 K, x1 = 0.9512 | 955.04 | –
318.15 K, x1 = 0.0976 | 746.77 | –
318.15 K, x1 = 0.0989 | – | 2.23
318.15 K, x1 = 0.1979 | 764.58 | –
318.15 K, x1 = 0.2 | – | 2.51
318.15 K, x1 = 0.248 | 773.96 | –
318.15 K, x1 = 0.249 | – | 2.66
318.15 K, x1 = 0.297 | – | 2.82
318.15 K, x1 = 0.3015 | 784.34 | –
318.15 K, x1 = 0.3929 | – | 3.18
318.15 K, x1 = 0.4004 | 804.52 | –
318.15 K, x1 = 0.5013 | 826.47 | –
318.15 K, x1 = 0.5026 | – | 3.66
318.15 K, x1 = 0.6015 | – | 4.16
318.15 K, x1 = 0.6035 | 850.21 | –
318.15 K, x1 = 0.6959 | 873.06 | –
318.15 K, x1 = 0.7035 | – | 4.76
318.15 K, x1 = 0.7956 | 899.51 | –
318.15 K, x1 = 0.7989 | – | 5.4
318.15 K, x1 = 0.9004 | – | 6.19
318.15 K, x1 = 0.9025 | 930.16 | –
318.15 K, x1 = 0.949 | 944.39 | –
318.15 K, x1 = 0.9505 | – | 6.62
328.15 K, x1 = 0.0988 | – | 2.23
328.15 K, x1 = 0.0996 | 739.48 | –
328.15 K, x1 = 0.1986 | – | 2.49
328.15 K, x1 = 0.208 | 758.56 | –
328.15 K, x1 = 0.2483 | – | 2.62
328.15 K, x1 = 0.2561 | 767.51 | –
328.15 K, x1 = 0.3036 | 776.66 | –
328.15 K, x1 = 0.3062 | – | 2.81
328.15 K, x1 = 0.3961 | – | 3.14
328.15 K, x1 = 0.3988 | 795.88 | –
328.15 K, x1 = 0.4898 | 815.4 | –
328.15 K, x1 = 0.4986 | – | 3.56
328.15 K, x1 = 0.596 | – | 4.03
328.15 K, x1 = 0.5972 | 839.96 | –
328.15 K, x1 = 0.6906 | 862.83 | –
328.15 K, x1 = 0.6969 | – | 4.61
328.15 K, x1 = 0.7914 | – | 5.22
328.15 K, x1 = 0.8023 | 892.19 | –
328.15 K, x1 = 0.8935 | – | 5.99
328.15 K, x1 = 0.8988 | 919.73 | –
328.15 K, x1 = 0.9494 | – | 6.44
328.15 K, x1 = 0.9518 | 935.78 | –

From the NIST ThermoML archive (doi:10.1016/j.jct.2004.08.003)
